Source: US9527876B2, “Prodrugs of bicyclic substituted pyrimidine type PDE-5 inhibitors” (Xuanzhu Pharma Co., Ltd., priority 2013, dated 2016)
Converted amounts (≈) assume the structure as drawn. Where two headings read alike, the source gives them in different places. Blank lines part the entries; values can stand above or below the compound they belong to.

Assays:
[1] = Rat pharmacokinetics after intragastric administration (LC-MS/MS of plasma); format: in vivo, rats; conditions: for F: rats, intragastric, absolute bioavailability
Text: Instrument and equipment: API4000 LC-MS/MS

PDE-5 = target: T1, PDE-5 (Homo sapiens, UniProt O76074); experiment: Scintillation counter (Topcount) PDE-5 enzyme assay; format: biochemical
T1 construct: PDE-5 source, human platelets; from tissue; host or cells: human platelets

[2] = rat, in vivo, iv, 1 mg/kg
Procedure: (§1) Chromatographic column: Agilent XDBC18(2.1×50 mm, 5 μm)
(§2) Rat blood collection: animal was fixed, heated at tail with water-bath 10 min before each time point, about 200 μL of blood was collected from caudal vein, and the collected blood was placed in anticoagulative tube containing heparin sodium. Blood sample was centrifuged under 8000 rpm at 4° C. for 6 min to obtain plasma sample, and the plasma must be prepared within 30 min after blood collection. The plasma was stored in −80° C. refrigerator before test.
(§3) Experimental Method • 1) Take a sample to be tested from refrigerator (−80° C.), melt in situ at room temperature, then eddy for 5 min; • 2) Precisely move 20 μL of sample into 1.5 mL centrifuge tube; • 3) Add 200 μL of internal standard solution; • 4) Eddy for 3 min, then centrifuge for 5 min (12000 rpm); • 5) Precisely move 50 μL of supernatant and add into 150 μL of water, eddy for 3 min, and load to LC-MS/MS for analysis.
(§4) Test sample (plasma sample) concentrations were output by using Analyst 1.5.1 of AB Company. […] Mean values, standard deviation and variable coefficient (those directly outputed by Analyst 1.5.1 were not calculated), were calculated by Microsoft Excel. PK parameter was calculated by using software Pharsight Phoenix 6.2.
(§5) Wherein T1/2 represents half-life period; AUCinf represents area under drug-time curve 0→∞; CL represents clearance rate; Vss represents apparent volume of distribution; Cmax represents peak concentration of the compound in plasma; Tmax represents the time at which the compound reached the peak concentration; F % represents absolute bioavailability.

[3] = in vivo, background statement; cited from earlier work
in vivo = conditions: rat, iv, 2 mg/kg
Procedure: as §1, §2, §3, §4, §5

[4] = Solubility of Compound 1 in buffer solutions of different pH (visual observation); format: physicochemical; conditions: for solubility at 5 min: aqueous buffer, thermodynamic from solid
Procedure: 1. Method for preparing sample of Compound 1, 6 parts of test sample were precisely weighed, each was 2 mg and was separately added to 40 μL of buffer solutions of pH 4, pH 5, pH 6, pH 7, pH 8, pH 9, respectively. Jolted (ultrasonic treatment for 5 min) and detected by visual observation.
1.02 g of potassium hydrogen phthalate was weighed, added to 0.05 mL of 0.2 mol/L hydrochloric acid solution and an appropriate amount of water for dissolution, diluted by adding water to 100 mL, mixed homogeneously to obtain the subject solution.
1.02 g of potassium hydrogen phthalate was weighed, added to 11.3 mL of 0.2 mol/L sodium hydroxide solution and an appropriate amount of water for dissolution, diluted by adding water to 100 mL, mixed homogeneously to obtain the subject solution.
0.68 g of potassium dihydric phosphate was weighed, added to 2.8 mL of 0.2 mol/L sodium hydroxide solution and an appropriate amount of water for dissolution, diluted by adding water to 100 mL, mixed homogeneously to obtain the subject solution.
0.68 g of potassium dihydric phosphate was weighed, added to 14.55 mL of 0.2 mol/L sodium hydroxide solution and an appropriate amount of water for dissolution, diluted by adding water to 100 mL, mixed homogeneously to obtain the subject solution.
0.75 g of potassium chloride and 0.62 g of boric acid were weighed, added to 3.9 mL of 0.2 mol/L sodium hydroxide solution and an appropriate amount of water for dissolution, diluted by adding water to 200 mL, mixed homogeneously to obtain the subject solution.
0.75 g of potassium chloride and 0.62 g of boric acid were weighed, added to 20.8 mL of 0.2 mol/L sodium hydroxide solution and an appropriate amount of water for dissolution, diluted by adding water to 200 mL, mixed homogeneously to obtain the subject solution.

[5] = Rat pharmacokinetics after intravenous injection (LC-MS/MS of plasma); conditions: for concentration at 0.083 h: 1 mg/kg, Concentration of Compound 1 in rat body
Procedure: as §1, §2, §3, §4, §5

[6] = Solubility in ultrapure water (visual observation); format: physicochemical
Procedure: Method for preparing samples of Compounds 4, 4-A, Compounds 9, and 9-B: 2 mg of test sample was taken, gradually added to ultrapure water, treated with ultrasound for 5 min each time until the sample was completely dissolved by visional observation.

[7] = Solubility of Compound Q in buffer solutions of different pH (HPLC); format: physicochemical; conditions: aqueous buffer, thermodynamic from solid, 1 mg in 1 mL, read-out: Measured concentration (solubility)
Procedure: 2. Method for preparing sample of Compound Q, 4 parts of test sample were precisely weighed, each was 1 mg and was separately added to 1 mL of buffer solutions of pH 3, pH 5, pH 7, pH 9, treated with ultrasound for 5 min and filtered through 0.45 μm organic filtration membrane. The filter liquors were used as test sample solutions. 10 μL of each was injected into high performance liquid chromatograph, and peak areas were recorded.
4.88 mg of test sample was precisely weighed, placed in 10 mL volumetric flask, added to 1 mL of methanol for dissolution, then diluted with methanol to constant volume to obtain a solution containing 0.488 mg of control per 1 mL, which was used as mother liquor A. The mother liquor A was gradually diluted with methanol to obtain control solutions containing 0.0488 mg or 0.00976 mg per 1 mL.
Linear regression was performed by using control concentration (C) as abscissa, and peak area (Y) as ordinate so as to obtain a linear equation. The concentrations of test sample solutions were obtained by putting the peak areas of test sample solutions into the linear equation.
The control linear equation of Compound Q is: Y=24262C, correlation coefficient r=1.0000.
Instrument and equipment: Agilent 1200 HPLC
Chromatography column: YMC-Pack-Pro C18(150×4.6 mm, 5 μm)
Buffer solution: 0.02 mol/L ammonium dihydrogen phosphate (added 0.2% triethylamine, and regulated with phosphoric acid to pH=6.0)
Phase A: acetonitrile-buffer solution=[…], Phase B: acetonitrile-buffer solution=80:20
Mobile phase: Phase A: Phase B=65:35
Detection wavelength: 254 nm Sample size: 10 μL

[8] = in human, background statement; cited from earlier work

Compound: COc1ccc(CN=c2[nH]c(N3CCC[C@H]3CO)ncc2C(=O)NCc2ncccn2)cc1Cl [Avanafil]
F ([1]; dose 2 mg/kg (Table 5)): 4.5%
IC50 (PDE-5): 3.1 nM
AUCinf [2]: 382 ng·h/mL
T1/2 [2]: 30 min
half-life [3]: about 1.2 h
Vd (in vivo): 3.56 L/kg
clearance (in vivo): 88.5 mL/min/kg

Compound: CN1CC(=O)N2[C@H](c3ccc4c(c3)OCO4)c3[nH]c4ccccc4c3C[C@@H]2C1=O [Tadalafil]
half-life [8]: about 16 h

Further lines, results first:

Plasma detection of Compound 1 at each time point ([1]; after intragastric administration (PO), LC-MS/MS): not detected
solubility at 5 min ([4]; buffer solution pH 5, 2 mg in 40 μL): ≥ 50000 µg/mL
solubility at 5 min ([4]; buffer solution pH 6, 2 mg in 40 μL): ≥ 50000 µg/mL
solubility at 5 min ([4]; buffer solution pH 7, 2 mg in 40 μL): ≥ 50000 µg/mL
solubility at 5 min ([4]; buffer solution pH 8, 2 mg in 40 μL): ≥ 50000 µg/mL
solubility at 5 min ([4]; buffer solution pH 9, 2 mg in 40 μL): ≥ 50000 µg/mL
Solubility, in words ([4]; buffer solution pH 4, compared with pH 5 to 9): decreased
Phenomenon on dissolution ([4]; buffer solution pH 4, 2 mg in 40 μL): precipitated after about 5 min
Plasma detection of Compound 1 at all other time points ([5]; after IV injection, time points other than 0.083 h, LC-MS/MS): could not be detected
concentration at 0.083 h ([5]; rat, plasma, iv, Mean, IV 1 mg/kg, mean of 3 rats): 165 ng/mL
concentration at 0.083 h ([5]; rat, plasma, iv, Rat 1, IV 1 mg/kg, Rat 1): 162 ng/mL
concentration at 0.083 h ([5]; rat, plasma, iv, Rat 2, IV 1 mg/kg, Rat 2): 183 ng/mL
concentration at 0.083 h ([5]; rat, plasma, iv, Rat 3, IV 1 mg/kg, Rat 3): 151 ng/mL
Time of conversion of prodrug Compound 1 into Compound Q ([5]; rats, after IV injection): ≤ 0.083 h
Compound: COc1ccc(CNc2nc(N3CC4CC4C3)ncc2C(=O)N[C@H]2CC[C@H](OP(=O)([O-])[O-])CC2)cc1Cl.[Na+].[Na+] (stereo partly drawn) [Compound 1, N-trans-4-(2-(3-azabicyclo[3.1.0]hexan-3-yl)-4-(3-chloro-4-methoxybenzylamino)pyrimidine-5-carboxamido)cyclohexyl phosphate disodium salt]

Solubility in water relative to original drug Compound 4-A [6]: 2000 times
solubility at 5 min ([6]; thermodynamic from solid, ultrasound 5 min): ≥ 200000 µg/mL
Compound: COc1ccc(CNc2nc(N3CCC4(CC4)C3)ncc2C(=O)N[C@H]2CC[C@H](OP(=O)([O-])[O-])CC2)cc1Cl.[Na+].[Na+] [Compound 4, N-trans-4-(4-((3-chloro-4-methoxybenzyl)amino)-2-(5-azaspiro[2.4]heptan-5-yl)pyrimidine-5-carboxamido)cyclohexyl phosphate disodium salt]

F ([1]; dose 5 mg/kg (Table 5)): 65%
Vd ([5]; rat, plasma, iv, 2 mg/kg): 4.48 L/kg
clearance ([5]; rat, plasma, iv, 2 mg/kg): 13 mL/min/kg
Compound: COc1ccc(CNc2nc(N3CC4CC4C3)ncc2C(=O)N[C@H]2CC[C@H](O)CC2)cc1C (stereo partly drawn) [Compound 9-B, 2-(3-azabicyclo[3.1.0]hexan-3-yl)-N-(trans-4-hydroxycyclohexyl)-4-(4-methoxy-3-methylbenzylamino)pyrimidine-5-carboxamide]

solubility at 5 min ([7]; buffer solution pH 3): 371 µg/mL (≈ 786 µM)
solubility at 5 min ([7]; buffer solution pH 5): 0.276 µg/mL (≈ 0.585 µM)
solubility at 5 min ([7]; buffer solution pH 7): 0.124 µg/mL (≈ 0.263 µM)
solubility at 5 min ([7]; buffer solution pH 9): 0.128 µg/mL (≈ 0.271 µM)
Compound: COc1ccc(CNc2nc(N3CC4CC4C3)ncc2C(=O)N[C@H]2CC[C@H](O)CC2)cc1Cl (stereo partly drawn) [Compound Q, 2-(3-azabicyclo[3.1.0]hexan-3-yl)-4-(3-chloro-4-methoxybenzylamino)-N-(trans-4-hydroxycyclohexyl)pyrimidine-5-carboxamide]
